Values of other authors as cited in patent US6653352B2, “Pain reliever and method of use” (Medical Merchandising, Inc., priority 1999, dated 2003).

Conditions: in fats, oils and alcohols

COc1cc(CNC(=O)CCCC/C=C/C(C)C)ccc1O [Capsaicin, N-Vanillyl-8-methyl-6-(E)-noneamide]
solubility: very soluble in fats, oils and alcohols
